Structures can show the parent of a compound that is named as a salt. Where two headings read alike, the source gives them in different places.
Legend:
[1] = system: P. falciparum 3D7A strain parasitized red blood cells; test: P. falciparum growth inhibition assay Sybr Green; type: cell-based, Plasmodium falciparum; conditions: for IC50: Plasmodium falciparum, Erythrocyte, 48 h
Method: P. falciparum Growth Inhibition Assay Sybr Green
The parasite growth is determined measuring the staining of the DNA's minor groove with SYBR Green I, which labels the remaining parasites. The DNA-SYBR complex absorbs light reaching the peak at λ=498 nm and emits at a peak of λ=522 nm.
Briefly, a culture of 3D7A strain parasitized red blood cells (RBC) (0.5% parasitemia and 2% haematocrit in RPMI-1640 supplemented with 25 ml albumax and […] hypoxanthine for 500 ml) is exposed to 3-fold serial dilutions of the compound. Plates are incubated 48 h at 37° C., 5% CO2, 5% O2, 90% N2. At 48 h of incubation, SyberGreen I solution (2×) is added and plates are incubated for 30 minutes at 37° C., 5% CO2, 5% O2, 90% N2 and then plates are frozen at −80° C. Then plates are read in the EnVision (EnVision Multilabel Plate Reader, Perkin Elmer). Data (pIC50) are generated by ActivityBase (IDBS) and graphs are checked by Spotfire.
Inhibition of parasite growth in whole cell assay (infected human eritrocites) in vitro is directly linked to reduction of parasitemia in vivo.

[2] = Equilibrium solubility in Fasted State Simulated Intestinal Fluid (FaSSIF); conditions: FaSSIF pH 6.5, room temperature, 4 hour equilibration, dynamic range 1-1000 μg/ml
[3] = Kinetic aqueous solubility in PBS pH 7.4 (HPLC-CAD); type: physicochemical; conditions: PBS pH7.4, room temperature, 1 hour equilibration; for Solubility: from DMSO stock; for solubility at 1 h / solubility kinetic at 1 h: phosphate buffered saline (PBS), pH 7.4, aqueous buffer, kinetic from dmso stock; for solubility kinetic at 1 h: read-out: Concentration
Method: The kinetic aqueous solubility was measured at room temperature after 1 hour equilibration in aqueous phosphate buffered saline (PBS) at pH7.4, and is determined by measuring the concentration of solute in solution after precipitation from DMSO stock solution.
The sample plate was left to equilibrate for 1 hour at room temperature.
Vacuum filtration was applied to filter the solution into a 96-well collection plate.
The filtrate was analysed by HPLC-CAD (Charged Aerosol Detector).
Calibration standards of Ketoconazole and Primidone were prepared by serial dilutions in DMSO at concentrations ranging from 0.016 to 4.5 mg/ml to produce the calibration curve.

[4] = system: Plasmodium falciparum Pf3D7^0087/N9; test: P. falciparum in vivo efficacy assay (humanised mouse model); conditions: NODscidIL2Rγ mice engrafted with human erythrocytes; for ED90 mean: parasitemia by microscopy and flow cytometry; for AUCED90 mean: blood exposure (AUC0-23h after first dose) at ED90
Method: Antimalarial in vivo efficacy was determined using the P. falciparum mouse model following the procedure described in: Jimenez-Díaz, M. B., Mulet, T., Viera, S., Gómez, V., Garuti, H., Ibañez, J., Alvarez-Doval, A., Shlutz, D. L., Martinez, A., Improved Murine Model Of Malaria Using Plasmodium falciparum (Competent Strains and Non-Myelodepleted NOD-scid IL2R_null Mice Engrafted with Human Erythrocytes) Antimicrob. Agents Chemother 2009, 53 (10), 4533-4536.
The goal of the study was to assess the therapeutic efficacy of the examples against Plasmodium falciparum Pf3D7^0087/N9 growing in peripheral blood of NODscidIL2Ry^0087/N9 mice engrafted with human erythrocytes. The levels of the examples were measured in serial peripheral blood samples obtained from each mouse of the efficacy experiment during the first 23 hrs after the first dose. The area under the curve of levels of compound is used to estimate the exposure in blood during the first 23 hours after the first administration (AUC0-23h).
The effect of Examples 1, 2, 5, 7, 8 and 10 on P. Falciparum Pf3D7^0087/N9 was assessed by microscopy and flow cytometry.

physchem = conditions: Fasted State Simulated Intestinal Fluid (FaSSIF), pH 6.5, fassif, thermodynamic from solid
[5] = average, 48 h incubation, SYBR Green I readout, dihydrochloride
[6] = range of values, 48 h incubation, SYBR Green I readout, dihydrochloride
[7] = average, 48 h incubation, SYBR Green I readout, read-out: Average value pIC50 (converted)
[8] = range of values, 48 h incubation, SYBR Green I readout, read-out: Pf3D7 pIC50 (converted)
[9] = average, 48 h incubation, SYBR Green I readout, ditrifluoroacetic acid salt
[10] = range of values, 48 h incubation, SYBR Green I readout, ditrifluoroacetic acid salt
[11] = read-out: Average value pIC50, average (converted), 48 h incubation, SYBR Green I readout
[12] = read-out: Pf3D7 pIC50, range of values (converted), 48 h incubation, SYBR Green I readout

Q: Which “Average value pIC50” value ([1]; average, 48 h incubation, SYBR Green I readout) does the source give for `NC1(CNC(=O)c2ccc(-c3cncc(-c4cncc(F)c4)n3)cc2)CCC1` [Example 4, N-((1-aminocyclobutyl)methyl)-4-(6-(5-fluoropyridin-3-yl)pyrazin-2-yl)benzamide] here?
A: The value was 8.60.

Q: And the “Pf3D7 pIC50” value ([1]; range of values, 48 h incubation, SYBR Green I readout)?
A: Its value is 8.54-8.76.

Q: What about the FaSSIF solubility [2] of the same compound?
A: The FaSSIF solubility was greater than 1000 µg/mL.

Q: And the Solubility [3]?
A: The Solubility was no less than 129.8 µg/mL.

Q: With `NC1(CNC(=O)c2ccc(-c3cncc(-c4cncc(F)c4)n3)cc2)CCC1` [Example 2, N-((1-aminocyclobutyl)methyl)-4-(6-(5-fluoropyridin-3-yl)pyrazin-2-yl)benzamide, dihydrochloride] as the compound, how does the “Average value pIC50” value [1, 5] read?
A: Its value is 8.50.

Q: And the “Pf3D7 pIC50” value [1, 6]?
A: Its value is 8.47-8.63.

Q: What about the ED90 mean ([4]; dihydrochloride) of the same compound?
A: Its ED90 mean is 1.14 mg/kg.

Q: What about the AUCED90 mean ([4]; dihydrochloride) of the same compound?
A: The AUCED90 mean was 0.121 mg · h · mL^−1 · day^−1.

Q: What about the solubility at 4 h (physchem) of the same compound?
A: Its solubility at 4 h is 398 µg/mL.

Q: And the solubility at 1 h [3]?
A: The solubility at 1 h was no less than 126 µg/mL.

Q: What about the solubility kinetic at 1 h [3] of the same compound?
A: Its solubility kinetic at 1 h is no less than 335 mM.

Q: Which IC50 [1, 7] does the source give for `N[C@@H]1CCCC[C@@H]1NC(=O)c1ccc(-c2cncc(-c3cncc(F)c3)n2)cc1` [Example 10, N-((1S,2R)-2-aminocyclohexyl)-4-(6-(5-fluoropyridin-3-yl)pyrazin-2-yl)benzamide] here?
A: The IC50 was 3.16 nM.

Q: What about the IC50 [1, 8] of the same compound?
A: The IC50 was 3.09 to 3.8 nM.

Q: And the ED90 mean [4]?
A: The ED90 mean was 0.95 mg/kg.

Q: And the AUCED90 mean [4]?
A: The AUCED90 mean was 0.20 mg · h · mL^−1 · day^−1.

Q: And the FaSSIF solubility [2]?
A: Its FaSSIF solubility is 941 µg/mL.

Q: What about the Solubility [3] of the same compound?
A: Its Solubility is no less than 136.2 µg/mL.

Q: Which “Average value pIC50” value [1, 9] does the source give for `NC1(CNC(=O)c2ccc(-c3cncc(-c4cncc(F)c4)n3)cc2)CCC1` [Example 1, N-((1-aminocyclobutyl)methyl)-4-(6-(5-fluoropyridin-3-yl)pyrazin-2-yl)benzamide, ditrifluoroacetic acid salt] here?
A: The value was 8.50.

Q: What about the “Pf3D7 pIC50” value [1, 10] of the same compound?
A: The value was 8.48-8.60.

Q: And the ED90 mean ([4]; ditrifluoroacetic acid salt)?
A: The ED90 mean was 1.28 mg/kg.

Q: What about the AUCED90 mean ([4]; ditrifluoroacetic acid salt) of the same compound?
A: Its AUCED90 mean is 0.067 mg · h · mL^−1 · day^−1.

Q: And the FaSSIF solubility ([2]; ditrifluoroacetic acid salt)?
A: The FaSSIF solubility was 429 µg/mL.

Q: What about the solubility at 1 h [3] of the same compound?
A: The solubility at 1 h was no less than 124 µg/mL.

Q: What about the solubility kinetic at 1 h [3] of the same compound?
A: The solubility kinetic at 1 h was no less than 329 mM.

Q: For `NC1(CNC(=O)c2ccc(-c3cncc(-c4cncc(F)c4)n3)cc2)CCC1` [Example 3, N-((1-aminocyclobutyl)methyl)-4-(6-(5-fluoropyridin-3-yl)pyrazin-2-yl)benzamide, sulfuric acid salt], which IC50 [1, 7] is on record?
A: The IC50 was 3.16 nM.

Q: And the IC50 [1, 8]?
A: Its IC50 is 2.51 to 5.01 nM.

Q: And the Solubility [3]?
A: Its Solubility is no less than 94.7 µg/mL.

Q: What does the source list for `CC(C)(N)CNC(=O)c1ccc(-c2cncc(-c3cncc(F)c3)n2)cc1` [Example 7, N-(2-amino-2-methylpropyl)-4-(6-(5-fluoropyridin-3-yl)pyrazin-2-yl)benzamide, ditrifluoroacetic acid salt]?
A: IC50 [1, 11]: 7.94 nM; IC50 [1, 12]: 7.08 to 8.91 nM; ED90 mean [4]: 1.74 mg/kg; AUCED90 mean [4]: 0.05 mg · h · mL^−1 · day^−1; solubility at 4 h (physchem): 742 µg/mL; solubility at 1 h [3]: ≥ 84.4 µg/mL; solubility kinetic at 1 h [3]: ≥ 231 mM

Q: Which “Average value pIC50” value [1, 9] does the source give for `N[C@@H]1CCCC[C@@H]1NC(=O)c1ccc(-c2cncc(-c3cncc(F)c3)n2)cc1` [Example 9, N-((1S,2R)-2-aminocyclohexyl)-4-(6-(5-fluoropyridin-3-yl)pyrazin-2-yl)benzamide, ditrifluoroacetic acid salt] here?
A: The value was 8.60.

Q: What about the “Pf3D7 pIC50” value [1, 10] of the same compound?
A: The value was 8.53-8.60.

Q: What about the solubility at 4 h (physchem) of the same compound?
A: The solubility at 4 h was 789 µg/mL.

Q: And the solubility at 1 h [3]?
A: Its solubility at 1 h is 115 µg/mL.

Q: And the solubility kinetic at 1 h [3]?
A: The solubility kinetic at 1 h was 293 mM.

Q: Which solubility at 4 h (physchem) does the source give for `NC1(CNC(=O)c2ccc(-c3cncc(-c4cncc(F)c4)n3)cc2)CC1` [Example 6, N-((1-aminocyclopropyl)methyl)-4-(6-(5-fluoropyridin-3-yl)pyrazin-2-yl)benzamide, ditrifluoroacetic acid salt] here?
A: The solubility at 4 h was 339 µg/mL.

Q: What about the solubility at 1 h [3] of the same compound?
A: The solubility at 1 h was no less than 200 µg/mL.

Q: And the solubility kinetic at 1 h [3]?
A: Its solubility kinetic at 1 h is no less than 549 mM.

Q: What does the source list for `N[C@@H]1CCCC[C@@H]1NC(=O)c1ccc(-c2cncc(-c3cncc(F)c3)n2)cc1` [Example 8, N-((1S,2R)-2-aminocyclohexyl)-4-(6-(5-fluoropyridin-3-yl)pyrazin-2-yl)benzamide, dihydrochloride]?
A: Average value pIC50 [1, 5]: 8.40; Pf3D7 pIC50 [1, 6]: 8.33-8.6; ED90 mean ([4]; dihydrochloride): 1.59 mg/kg; AUCED90 mean ([4]; dihydrochloride): 0.26 mg · h · mL^−1 · day^−1; FaSSIF solubility ([2]; dihydrochloride): >1000 µg/mL; solubility at 1 h [3]: ≥ 106 µg/mL; solubility kinetic at 1 h [3]: ≥ 271 mM

Q: Which IC50 [1, 11] does the source give for `NC1(CNC(=O)c2ccc(-c3cncc(-c4cncc(F)c4)n3)cc2)CC1` [Example 5, N-((1-aminocyclopropyl)methyl)-4-(6-(5-fluoropyridin-3-yl)pyrazin-2-yl)benzamide, dihydrochloride] here?
A: Its IC50 is 3.16 nM.

Q: What about the IC50 [1, 12] of the same compound?
A: The IC50 was 2.51 to 4.57 nM.

Q: What about the ED90 mean [4] of the same compound?
A: The ED90 mean was 1.04 mg/kg.

Q: What about the AUCED90 mean [4] of the same compound?
A: The AUCED90 mean was 0.13 mg · h · mL^−1 · day^−1.

Q: And the FaSSIF solubility ([2]; dihydrochloride)?
A: The FaSSIF solubility was 380 µg/mL.

Q: And the solubility at 1 h [3]?
A: The solubility at 1 h was no less than 114 µg/mL.

Q: And the solubility kinetic at 1 h [3]?
A: The solubility kinetic at 1 h was no less than 313 mM.

— patent US20250122167A1, “Pyrazine Compounds Useful in the Treatment of Parasitic Protozoal Infection” (priority 2021, published 2025)
